Assay results taken from US20230080054A1 (ILDONG PHARMACEUTICAL CO., LTD., priority 2021, published 2023).

Legend:
human ANO6 [1] = target: T1, human ANO6 (Homo sapiens, UniProt Q4KMQ2); experiment: YFP quenching assay (ANO6 ion channel activity); assay type: cell-based; conditions: 10 μM ionomycin; for inhibition at 1 µM: test compound 1 μM, read-out: Inhibition Level 1 μM; for inhibition at 30 µM: test compound 30 μM, read-out: Inhibition Level 30 μM
T1 construct: expressed in transfected cells
T1 sequence (Q4KMQ2 1-931 isoform Q4KMQ2-2): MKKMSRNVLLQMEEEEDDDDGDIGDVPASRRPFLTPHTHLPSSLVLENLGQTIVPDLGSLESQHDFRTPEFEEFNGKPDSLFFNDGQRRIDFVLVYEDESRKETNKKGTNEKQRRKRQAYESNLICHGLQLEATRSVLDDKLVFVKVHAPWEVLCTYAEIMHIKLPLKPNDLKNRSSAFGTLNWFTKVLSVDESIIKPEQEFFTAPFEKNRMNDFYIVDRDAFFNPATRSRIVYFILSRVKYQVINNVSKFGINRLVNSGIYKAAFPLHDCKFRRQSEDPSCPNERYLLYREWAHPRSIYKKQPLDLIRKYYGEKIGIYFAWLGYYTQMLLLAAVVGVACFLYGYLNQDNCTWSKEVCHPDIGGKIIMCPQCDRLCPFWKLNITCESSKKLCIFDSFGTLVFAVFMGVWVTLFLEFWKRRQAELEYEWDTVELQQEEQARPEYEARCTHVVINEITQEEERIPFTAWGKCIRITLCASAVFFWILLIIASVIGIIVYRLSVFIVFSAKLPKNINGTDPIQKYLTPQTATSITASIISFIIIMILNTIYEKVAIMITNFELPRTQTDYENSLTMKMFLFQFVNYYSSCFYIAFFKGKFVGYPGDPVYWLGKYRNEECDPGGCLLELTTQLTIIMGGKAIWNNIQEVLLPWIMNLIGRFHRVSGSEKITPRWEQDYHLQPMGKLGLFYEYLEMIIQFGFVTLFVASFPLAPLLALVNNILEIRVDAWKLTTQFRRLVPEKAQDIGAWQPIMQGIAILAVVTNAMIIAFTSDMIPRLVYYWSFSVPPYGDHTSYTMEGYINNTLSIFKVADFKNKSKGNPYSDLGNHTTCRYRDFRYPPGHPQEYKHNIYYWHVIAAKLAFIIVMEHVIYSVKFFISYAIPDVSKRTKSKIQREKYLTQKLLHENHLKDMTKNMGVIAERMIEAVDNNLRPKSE
In short: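 FRT cells stably expressing human ANO6 and YFP-H148Q/I152L/F46L, preincubated 10 min at 40° C with compounds (1% DMSO) in PBS. Quench read every 0.4 s after injecting 140 mM SCN- with 10 μM ionomycin; % inhibition from the 3.6–7.6 s fluorescence difference, normalised to no-ionomycin (100%) and ionomycin-only (0%) wells, duplicate or triplicate.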

human ANO6 [2] = target: T1, human ANO6; experiment: LACT C2 assay (phosphatidylserine scramblase function assay); assay type: cell-based; conditions: FRT cells expressing human ANO6, 10 μM ionomycin; for inhibition at 0.1 µM: test compound 100 nM, read-out: Inhibition Level 100 nM; for inhibition at 1 µM: test compound 1 μM, read-out: Inhibition Level 1 μM
In short: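 FRT cells stably expressing human ANO6 were pretreated with compound (1% DMSO) for 10 min, then stimulated with 10 μM ionomycin for 10 min. Surface phosphatidylserine was stained with 500 nM Lact-C2-GFP and quantified by imaging. Inhibition was scaled between unstimulated (100%) and ionomycin-only (0%) controls, averaged over triplicates.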

Row | Compound | inhibition at 1 µM (human ANO6 [1]) [%] | inhibition at 30 µM (human ANO6 [1]) [%] | inhibition at 0.1 µM (human ANO6 [2]) [%] | inhibition at 1 µM (human ANO6 [2]) [%]
1 | O=C(NCc1ccccc1Cl)c1cccc(Nc2ccc(-c3ccccc3)nn2)c1 [Compound A46] | 30 to 60 | ≥ 60 | < 30 | ≥ 60
2 | CCCOc1ccc(CNC(=O)c2cccc(Nc3ccc(-c4ccccc4)nn3)c2)cc1 [Compound A47] | ≥ 60 | ≥ 60 | 30 to 60 | 
3 | O=C(NCc1ccc(Cl)cc1)c1cccc(Nc2ccc(-c3ccccc3)nn2)c1 [Compound A49] | 30 to 60 | ≥ 60 | < 30 | 30 to 60
4 | O=C(NCCCc1ccccc1)c1cccc(Nc2ccc(-c3ccccc3)nn2)c1 [Compound A51] | ≥ 60 | ≥ 60 | 30 to 60 | 30 to 60
5 | CCOc1ccc(CNC(=O)c2cccc(Nc3ccc(-c4ccccc4)nn3)c2)cc1OCC [Compound A54] | 30 to 60 | ≥ 60 | < 30 | < 30
6 | CCN(CC)c1ccc(CNC(=O)c2cccc(Nc3ccc(-c4ccccc4)nn3)c2)cc1 [Compound A55] | ≥ 60 | ≥ 60 | < 30 | < 30
7 | Cc1ccc(C(C)NC(=O)c2cccc(Nc3ccc(-c4ccccc4)nn3)c2)cc1 (stereo not drawn) [Compound A57] | ≥ 60 | ≥ 60 | < 30 | < 30
8 | CC(CCc1ccccc1)NC(=O)c1cccc(Nc2ccc(-c3ccccc3)nn2)c1 (stereo not drawn) [Compound A58] | ≥ 60 | ≥ 60 | < 30 | < 30
9 | O=C(NC1CCCCC1)c1cccc(Nc2ccc(-c3ccccc3)nn2)c1 [Compound A62] | 30 to 60 | ≥ 60 | < 30 | 30 to 60
10 | O=C(NCc1ccc2c(c1)OCO2)c1cccc(Nc2ccc(-c3ccccc3)nn2)c1 [Compound A64] | 30 to 60 | ≥ 60 | < 30 | < 30
11 | O=C(NC1CCN(Cc2ccccc2)CC1)c1cccc(Nc2ccc(-c3ccccc3)nn2)c1 [Compound A73] | ≥ 60 | ≥ 60 | < 30 | 30 to 60
12 | O=C(NCCc1ccccc1)c1cccc(Nc2ccc(-c3ccccc3)nn2)c1 [Compound A74] | ≥ 60 | ≥ 60 | < 30 | 30 to 60
13 | COc1cccc(CNC(=O)c2cccc(Nc3ccc(-c4ccccc4)nn3)c2)c1 [Compound A76] | ≥ 60 | ≥ 60 | < 30 | 30 to 60
14 | COc1ccc(CNC(=O)c2cccc(Nc3ccc(-c4ccccc4)nn3)c2)cc1 [Compound A77] | ≥ 60 | ≥ 60 | < 30 | < 30
15 | CCOc1ccc(NC(=O)c2cccc(Nc3ccc(-c4ccccc4)nn3)c2)cc1 [Compound A80] | ≥ 60 |  | < 30 | ≥ 60
16 | O=C(Nc1ccc(N2CCOCC2)cc1)c1cccc(Nc2ncc(-c3cccc(F)c3)cn2)c1 [Compound A84] | ≥ 60 |  | < 30 | 30 to 60
17 | O=C(Nc1ccc2c(c1)OCO2)c1cccc(Nc2ncc(-c3cccc(F)c3)cn2)c1 [Compound A85] | ≥ 60 |  | < 30 | ≥ 60
18 | Cc1ccc(CNC(=O)c2cccc(Nc3ccc(-c4cccc(F)c4)nn3)c2)o1 [Compound A87] | ≥ 60 |  |  | 30 to 60
19 | O=C(Nc1ccccc1)c1cccc(Nc2ccc(-c3ccccc3)nn2)c1 [Compound A89] | ≥ 60 |  | 30 to 60 | ≥ 60

Continued, values first:

Row | inhibition at 1 µM (human ANO6 [1]) [%] | inhibition at 30 µM (human ANO6 [1]) [%] | inhibition at 0.1 µM (human ANO6 [2]) [%] | inhibition at 1 µM (human ANO6 [2]) [%] | Compound
20 | ≥ 60 | ≥ 60 | < 30 | 30 to 60 | Cc1ccccc1CNC(=O)c1cccc(Nc2ccc(-c3ccccc3)nn2)c1 [Compound A48]
21 | ≥ 60 | ≥ 60 | < 30 | 30 to 60 | Cc1cccc(CNC(=O)c2cccc(Nc3ccc(-c4ccccc4)nn3)c2)c1 [Compound A50]
22 | ≥ 60 | ≥ 60 | < 30 | < 30 | Cc1ccc(CNC(=O)c2cccc(Nc3ccc(-c4ccccc4)nn3)c2)cc1 [Compound A52]
23 | ≥ 60 | ≥ 60 | < 30 | < 30 | CC(C)c1ccc(CNC(=O)c2cccc(Nc3ccc(-c4ccccc4)nn3)c2)cc1 [Compound A53]
24 | ≥ 60 | ≥ 60 | < 30 | < 30 | O=C(NC1CCCC1)c1cccc(Nc2ccc(-c3ccccc3)nn2)c1 [Compound A63]
25 | ≥ 60 | ≥ 60 | < 30 | 30 to 60 | CCCCNC(=O)c1cccc(Nc2ccc(-c3ccccc3)nn2)c1 [Compound A65]
26 | ≥ 60 | ≥ 60 | < 30 | < 30 | CC(C)CNC(=O)c1cccc(Nc2ccc(-c3ccccc3)nn2)c1 [Compound A66]
27 | ≥ 60 | ≥ 60 | < 30 | < 30 | CCOCCCNC(=O)c1cccc(Nc2ccc(-c3ccccc3)nn2)c1 [Compound A67]
28 | ≥ 60 | ≥ 60 | < 30 | < 30 | CCCNC(=O)c1cccc(Nc2ccc(-c3ccccc3)nn2)c1 [Compound A68]
29 | ≥ 60 | ≥ 60 | 30 to 60 | ≥ 60 | CC(C)CCNC(=O)c1cccc(Nc2ccc(-c3ccccc3)nn2)c1 [Compound A70]
30 | ≥ 60 | ≥ 60 |  | 30 to 60 | CCCCCNC(=O)c1cccc(Nc2ccc(-c3ccccc3)nn2)c1 [Compound A72]
31 | 30 to 60 | ≥ 60 | < 30 | 30 to 60 | O=C(NCc1ccccc1)c1cccc(Nc2ccc(-c3ccccc3)nn2)c1 [Compound A75]
32 | ≥ 60 | ≥ 60 | < 30 | < 30 | CCC(C)NC(=O)c1cccc(Nc2ccc(-c3ccccc3)nn2)c1 (stereo not drawn) [Compound A78]
